Source: patent US11945822B2, “Pyrazolo-triazine and/or pyrazolo-pxrimidine derivatives as selective inhibitor of cyclin dependent kinase” (QURIENT CO., LTD., priority 2018, dated 2024)
Read-outs that look alike come from different tables or passages of the source.

Columns and labels:
[1] = target: T1, CDK7/Cyclin H/MNAT1 (Homo sapiens, UniProt P50613); assay: Enzymatic assay for CDK7 (FRET based LANCE Ultra kinase assay); type: biochemical
T1 construct: purchased Invitrogen PR6749B
Outline: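 Inhibition was measured at Km ATP by time-resolved FRET between a Eu anti-phospho antibody and a phosphorylated ULight peptide. The enzyme was the purified CDK7/cyclin complex, and data were curve-fitted.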

[2] = tested on: RPMI-8226; assay: Cellular RPMI-8226 viability assay (CellTiter-Glo, 72 hours); type: cell-based; conditions: Homo sapiens
Outline: (§1)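 Luminescent ATP read-out (CellTiter-Glo) after 72 h compound exposure at 37 °C/5% CO2; duplicate wells; vehicle control DMSO <0.1% final; seeding density set per cell line.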

[3] = tested on: HCT116; assay: Cellular HCT116 viability assay (CellTiter-Glo, 72 hours); type: cell-based; conditions: Homo sapiens, HCT-116
Outline: as §1

[4] = tested on: MOLT-4; assay: Cellular MOLT-4 viability assay (CellTiter-Glo, 72 hours); type: cell-based; conditions: Homo sapiens, MOLT4 viability assay
Outline: as §1

[5] = target: T2, CDK2/Cyclin A (Homo sapiens, UniProt P24941); assay: Enzymatic assay for CDK2 (FRET based LANCE Ultra kinase assay); type: biochemical; conditions: read-out: CDK2 enzymatic activity (IC50 range)
T2 construct: purchased Invitrogen PV6290
Outline: (§2)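 Each CDK complex ([…]) phosphorylated 68 nM ULight-MBP peptide with ATP at Km for 60 min at 23° C., against 8 compound doses (4-fold dilutions). EDTA/Eu-anti-phospho-MBP detection, 60 min, then TR-FRET emission at 615 and 665 nm.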

[6] = tested on: MV4-11; assay: Cellular MV4-11 viability assay (CellTiter-Glo, 72 hours); type: cell-based; conditions: Homo sapiens
Outline: as §1

[7] = target: T3, CDK5/p25 (Homo sapiens, UniProt Q00535); assay: Enzymatic assay for CDK5 (FRET based LANCE Ultra kinase assay); type: biochemical; conditions: read-out: CDK5 enzymatic activity (IC50 range)
T3 construct: purchased Invitrogen PR8543B
T3 sequence (Q00535 whole entry): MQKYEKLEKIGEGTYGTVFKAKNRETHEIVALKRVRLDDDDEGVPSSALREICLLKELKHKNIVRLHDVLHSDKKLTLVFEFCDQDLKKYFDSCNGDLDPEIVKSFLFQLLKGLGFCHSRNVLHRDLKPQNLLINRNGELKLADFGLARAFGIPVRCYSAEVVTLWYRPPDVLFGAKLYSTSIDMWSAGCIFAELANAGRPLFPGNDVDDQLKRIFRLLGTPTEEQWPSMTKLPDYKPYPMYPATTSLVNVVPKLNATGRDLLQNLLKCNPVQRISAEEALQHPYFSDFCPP
T3 sequence (Q15078 99-307 partner limits assumed): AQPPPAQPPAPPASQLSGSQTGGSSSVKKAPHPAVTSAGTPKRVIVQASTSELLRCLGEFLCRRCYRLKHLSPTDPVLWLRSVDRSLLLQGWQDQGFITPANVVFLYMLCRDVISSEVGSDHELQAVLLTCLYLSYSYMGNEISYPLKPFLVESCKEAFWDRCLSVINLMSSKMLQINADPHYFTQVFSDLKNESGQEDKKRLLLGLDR
Outline: as §2

[8] = target: T4, CDK1/Cyclin B (Homo sapiens, UniProt P06493); assay: Enzymatic assay for CDK1 (FRET based LANCE Ultra kinase assay); type: biochemical; conditions: read-out: CDK1 enzymatic activity (IC50 range)
T4 construct: purchased Invitrogen PR4768C
T4 sequence (P06493 whole entry): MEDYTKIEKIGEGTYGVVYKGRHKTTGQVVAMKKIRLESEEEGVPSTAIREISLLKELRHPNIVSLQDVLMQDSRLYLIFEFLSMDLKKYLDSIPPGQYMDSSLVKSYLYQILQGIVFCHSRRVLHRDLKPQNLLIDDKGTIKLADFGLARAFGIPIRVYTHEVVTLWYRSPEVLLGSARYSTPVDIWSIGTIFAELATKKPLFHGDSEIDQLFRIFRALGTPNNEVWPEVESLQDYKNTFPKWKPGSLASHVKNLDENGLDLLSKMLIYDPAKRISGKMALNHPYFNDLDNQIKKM
T4 sequence (P14635 whole entry partner): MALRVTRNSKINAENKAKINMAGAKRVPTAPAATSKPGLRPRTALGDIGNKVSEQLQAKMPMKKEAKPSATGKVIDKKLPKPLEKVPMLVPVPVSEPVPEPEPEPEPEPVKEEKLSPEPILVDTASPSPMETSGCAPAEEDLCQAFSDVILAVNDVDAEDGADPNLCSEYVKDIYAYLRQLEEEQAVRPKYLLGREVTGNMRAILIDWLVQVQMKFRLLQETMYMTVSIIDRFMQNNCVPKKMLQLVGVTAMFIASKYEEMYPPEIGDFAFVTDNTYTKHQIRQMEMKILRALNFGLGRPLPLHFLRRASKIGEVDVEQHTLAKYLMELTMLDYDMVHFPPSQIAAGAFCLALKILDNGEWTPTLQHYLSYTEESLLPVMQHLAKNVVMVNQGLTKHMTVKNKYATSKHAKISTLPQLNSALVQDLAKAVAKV
Outline: as §2

[9] = tested on: H460; assay: Cellular H460 viability assay (CellTiter-Glo, 72 hours); type: cell-based; conditions: Homo sapiens, NCI-H460
Outline: as §1

[10] = read-out: CDK7 enzymatic activity (IC50 range)

T1 sequence (P50613 whole entry): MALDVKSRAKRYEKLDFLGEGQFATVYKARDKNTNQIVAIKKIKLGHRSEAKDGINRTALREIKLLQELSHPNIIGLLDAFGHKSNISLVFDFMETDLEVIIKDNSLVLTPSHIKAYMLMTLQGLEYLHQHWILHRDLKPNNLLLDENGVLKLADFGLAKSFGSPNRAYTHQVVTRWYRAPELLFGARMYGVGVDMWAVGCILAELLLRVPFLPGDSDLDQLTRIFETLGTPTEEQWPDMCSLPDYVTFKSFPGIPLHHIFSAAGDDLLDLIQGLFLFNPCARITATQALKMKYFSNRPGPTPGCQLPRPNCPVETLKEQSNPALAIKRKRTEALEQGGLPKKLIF
T1 sequence (P51946 whole entry partner): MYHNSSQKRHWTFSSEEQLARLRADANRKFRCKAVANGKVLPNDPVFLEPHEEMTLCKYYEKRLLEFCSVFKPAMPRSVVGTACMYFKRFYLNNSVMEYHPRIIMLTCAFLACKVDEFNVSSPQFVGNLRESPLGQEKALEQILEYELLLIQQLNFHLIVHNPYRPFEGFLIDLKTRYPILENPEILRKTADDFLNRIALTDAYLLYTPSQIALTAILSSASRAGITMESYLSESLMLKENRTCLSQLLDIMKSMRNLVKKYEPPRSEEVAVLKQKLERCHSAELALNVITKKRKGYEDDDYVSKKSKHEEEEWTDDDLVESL
T1 sequence (P51948 whole entry partner): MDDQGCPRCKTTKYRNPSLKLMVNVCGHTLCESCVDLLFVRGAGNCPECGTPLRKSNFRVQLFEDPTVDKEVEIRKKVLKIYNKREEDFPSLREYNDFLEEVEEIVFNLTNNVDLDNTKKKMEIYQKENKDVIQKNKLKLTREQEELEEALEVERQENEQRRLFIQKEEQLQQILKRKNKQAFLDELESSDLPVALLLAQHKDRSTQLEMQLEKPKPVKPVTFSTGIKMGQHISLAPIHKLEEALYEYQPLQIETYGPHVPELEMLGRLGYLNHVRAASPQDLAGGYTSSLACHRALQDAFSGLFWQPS

Row | SMILES | CDK1/CDK7: Selectivity of CDK7 inhibition over CDK1 inhibition [1] | CDK2/CDK7: Selectivity of CDK7 inhibition over CDK2 inhibition [1] | CDK5/CDK7: Selectivity of CDK7 inhibition over CDK5 inhibition [1] | IC50 [1, 10] [nM] | IC50 [2] [nM] | IC50 [3] [nM] | IC50 [4] [nM] | IC50 [5] [nM] | IC50 [6] [nM] | IC50 [7] [nM] | IC50 [8] [nM] | IC50 [9] [nM] | IC50 [1] [nM]
1 | CC(C)c1cnn2c(NCc3ccccc3-n3cccn3)nc(N3CCC(C)(N)CC3)nc12 [Compound 27] | A (A=greater than 200 fold) | B (B=less than 200 fold, but greater than 20 fold) | B (B=less than 200 fold, but greater than 20 fold) | < 100 | < 1000 | < 1000 | 1000 to 10000 | 100 to 1000 | < 1000 | < 100 | 100 to 1000 | < 1000 | 
2 | CC(C)c1cnn2c(NCc3ccccc3-n3ccc(-c4ccccc4)n3)nc(N3CCC(N)CC3)nc12 [Compound 99] | A (A=greater than 200 fold) | A (A=greater than 200 fold) | B (B=less than 200 fold, but greater than 20 fold) |  | 1000 to 10000 | < 1000 | 1000 to 10000 | > 1000 | < 1000 | 100 to 1000 | > 1000 | < 1000 | < 100
3 | CC(=O)Nc1ccc2[nH]c(-c3ccccc3CNc3nc(N4CCC(N)CC4)nc4c(C(C)C)cnn34)cc2c1 [Compound 116] | B (B=less than 200 fold, but greater than 20 fold) | B (B=less than 200 fold, but greater than 20 fold) | C (C=less than 20 fold) | < 100 | < 1000 | < 1000 | < 1000 | < 100 | < 1000 | < 100 | 100 to 1000 | < 1000 | 
4 | CC(C)c1cnn2c(NCc3ccccc3-c3cnc4ccccc4n3)nc(N3CCC(N)CC3)nc12 [Compound 80] | A (A=greater than 200 fold) | B (B=less than 200 fold, but greater than 20 fold) | B (B=less than 200 fold, but greater than 20 fold) | < 100 | < 1000 | < 1000 | 1000 to 10000 | 100 to 1000 | < 1000 | < 100 | 100 to 1000 | < 1000 | 
5 | CC(C)c1cnn2c(NCc3ccccc3-c3cc4c(F)cccc4[nH]3)nc(N3CCC(N)CC3)nc12 [Compound 112] | B (B=less than 200 fold, but greater than 20 fold) | B (B=less than 200 fold, but greater than 20 fold) | C (C=less than 20 fold) | < 100 | < 1000 | < 1000 | < 1000 | 100 to 1000 | < 1000 | < 100 | 100 to 1000 | < 1000 | 
